≈ marks a conversion by molar mass, not a printed value. Where two headings read alike, the source gives them in different places. Non-standard residues stand in square brackets, D forms with d. Residues, ends and D or L forms follow the SMILES beside them. Hyp = O=C(O)[C@@H]1C[C@@H](O)CN1; Tle = CC(C)(C)[C@H](N)C(=O)O; Orn = NCCC[C@H](N)C(=O)O Some results are limits rather than exact numbers.

Eight compounds from patent publication US8686113B2 (priority 2009, dated 2014) can be followed below.

In data set [1] the test system is E. coli BL21 A1. Format: cell-based, Escherichia coli. Summed up: (§1)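 Broth microdilution in 1% TSB with twofold peptide series, final 128 μg/mL to 62.5 ng/mL, against 5×10^6 bacteria/mL stock suspension added 1:1. Incubated 20 h at 37 °C, growth read by absorbance at 595 nm; MIC is the lowest concentration with no growth, determined in triplicate.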
For data set [2], the system named is M. luteus 10240. Kind of data set: Growth inhibition assay (microdilution MIC). Format: cell-based, Micrococcus luteus. The settings on record: 10240, 20 h. In short, it runs like this:
as §1
For orientation: Broth dilution looks for growth in wells or tubes with falling amounts of substance.

Data set [3] relates to Escherichia coli DSM 10233. As to the method:
The minimum inhibitory concentrations (MIC) of the antimicrobial peptides and peptide derivatives were determined in microdilution assays. These used a continuous peptide dilution in sterile flat-bottomed 96-well microtiter plates (polystyrene, Greiner Bio-One GmbH, Frickenhausen, Germany) and a total volume of 100 μL per well. The aqueous peptide or peptidomimetic solutions were diluted with 1% TSB water, to obtain a final concentration of 256 μg/mL. 50 μL of the peptide or peptidomimetic solution was pipetted into the first well of each series and stirred. From this solution, 50 μL was transferred to the second well, stirred and again 50 μL was transferred to the next well, and so on. A double dilution series is obtained, beginning at 256 μg/mL in the first well to 125 ng/mL in the twelfth well. The bacteria, e.g. E. coli BL21 A1, were cultured overnight at 37° C. in nutrient broth (NB, Carl Roth GmbH+Co. KG, Karlsruhe, Germany). 50 μL of a 5×10^6 bacteria/mL suspension in 1% TSB was added to each well of the microtiter plate and thus a final concentration of the peptides or peptidomimetics from 128 μg/mL (well 1) to 62.5 ng/mL (well 12) was established in each series. The plates were incubated at 37° C. for 20 h and then the absorption was measured at 595 nm with a TECAN microtiter plate spectrophotometer (Tecan Trading AG, Mannedorf, Switzerland). The MIC values of all peptides and peptidomimetics were determined in triplicate. Sterile water was used as negative control.
The peptides shown in Table 8 were investigated for their MIC against pathogenic bacteria such as E. coli DSM 10233, K. pneumoniae DSM 681 and P. aeruginosa DSM 3227.

For data set [4] the following is noted: mouse, serum.
Data set [5] is described as follows: Stability against bacterial proteases in E. coli lysate. Format: in vitro ADME. To be noted: E. coli lysate with 0.5 mg/mL protein concentration, 37° C. As for the experimental part: For the bacterial lysate, 500 mL of nutrient broth (Carl Roth GmbH+Co. KG, Karlsruhe) was inoculated with E. coli BL21 A1 and incubated overnight at 37° C. 2×250 mL bacterial suspension were centrifuged for 25 min at 5000 rpm and 4° C. in a Beckman Avanti™ J-20-XP centrifuge with JLA-10.500 rotor (Beckman Coulter, Fullerton, U.S.A.). The pellets were each suspended in 30 mL PBS (pH 7.4) and centrifuged again in a Beckman Allegra™ 2IR centrifuge (Beckman Coulter, Fullerton, U.S.A.). The pellets were each suspended in 10 mL PBS and were disrupted with ultrasound (Vibra-cell™ microtip, Fisher Bioblock Scientific, Illkirch, France) 2×5 min (750 W; amplitude 40%; 2 s on/3 s off) on ice. The bacterial lysates were combined and 1 mL aliquots were centrifuged at 15400 rpm for 20 min at 4° C. (Beckman Allegra™). The supernatants were removed and stored at −20° C. The protein content of the bacterial lysate was determined by protein determination according to Bradford.
A solution of 0.15 μg/mL peptide in bacterial lysate with protein content of 1.5 mg/mL or 0.5 mg/mL was incubated at 37° C. After 0, 30, 60, 120, 240 or 360 min, 200 μL was taken from each and the proteins were precipitated with 50 μL of 15% trichloroacetic acid. Then it was incubated for 10 min at 4° C. and then centrifuged for 5 min at 13000 rpm in a Minispin desktop centrifuge. 210 μL was taken from the supernatant and neutralized with 1 mol/L sodium hydroxide solution. The intact peptide and the degradation products were analyzed by HPLC. 60 μL of 3% aqueous acetonitrile with 0.1% trifluoroacetic acid (TFA) was added to the solution and 250 μL of the mixture was injected. After chromatographic separation, the constituents were identified by MALDI-TOF-MS,
In order to investigate the stability against bacterial proteases, a lysate was prepared from an overnight culture of E. coli BL21 A1 and the peptides were incubated in it. Using Bradford protein determination, the protein concentration was adjusted to 0.5 or 1.5 mg/mL.

[6] abbreviates: Half-life in 25% mouse serum, 25% aqueous mouse serum, 37° C., 75 μg/mL peptide.
The mark [7] stands for this setting: half-life in 25% aqueous mouse serum, 25% serum.

The half-life is how long it takes for the measured level to halve. In turn, `CC[C@H](C)[C@H](NC(=O)[C@@H]1C[C@@H](O)CN1C(=O)[C@H](CCCNC(=N)N)NC(=O)[C@@H]1CCCN1C(=O)[C@@H]1CCCN1C(=O)[C@H](CCCNC(=N)N)NC(=O)[C@@H]1CCCN1C(=O)[C@H](CCCNC(=N)N)NC(=O)[C@@H]1CCCN1C(=O)[C@H](CC(C)C)NC(=O)[C@H](Cc1ccc(O)cc1)NC(=O)[C@@H]1CCCN1C(=O)[C@@H]1CCCN1C(=O)[C@H](CCCCN)NC(=O)[C@H](CC(=O)O)NC(=O)[C@@H](N)C(C)C)C(=O)N[C@@H](Cc1ccc(O)cc1)C(=O)N[C@@H](CC(N)=O)C(=O)N[C@@H](CCCN)C(N)=O` [SEQ ID NO. 63] (H-VDKPPYLPRPRPPR[Hyp]IYN[Orn]-NH2) returned an MIC values against E. coli in data set [1] of 4 µg/mL (≈ 1.74 µM). Moreover, in data set [1] (1% TSB, 20 h at 37° C.), the “MIC E. coli BL21 A1” value is 4 µg/mL (≈ 1.74 µM). Further, the “MIC M. luteus 10240” value in data set [2] was 8 µg/mL (≈ 3.47 µM). The “MIC E. coli DSM 10233” value in data set [3] lay within 1 to 4 µg/mL. Moreover, the half-life in data set [4] (setting [6]) and in data set [4] (setting [7]) was above 6 h in each case.

In data set [1], `CC[C@H](C)[C@H](NC(=O)[C@H](CCCN)NC(=O)[C@H](CCCNC(=N)N)NC(=O)[C@@H]1CCCN1C(=O)[C@@H]1CCCN1C(=O)[C@H](CCCNC(=N)N)NC(=O)[C@@H]1CCCN1C(=O)[C@H](CCCNC(=N)N)NC(=O)[C@@H]1CCCN1C(=O)[C@H](CC(C)C)NC(=O)[C@H](Cc1ccc(O)cc1)NC(=O)[C@@H]1CCCN1C(=O)[C@@H]1CCCN1C(=O)[C@H](CCCCN)NC(=O)[C@H](CC(=O)O)NC(=O)[C@@H](N)C(C)C)C(=O)N[C@@H](Cc1ccc(O)cc1)C(=O)N[C@@H](CC(N)=O)C(=O)N[C@@H](CCCN)C(N)=O` [SEQ ID NO. 72, VDKPPYLPRPRPPROIYNO-NH2] (H-VDKPPYLPRPRPPR[Orn]IYN[Orn]-NH2) registered an MIC values against E. coli of 8 µg/mL (≈ 3.47 µM). For the same compound, the “MIC E. coli BL21 A1” value in data set [1] (BL21, 20 h) was 8 µg/mL (≈ 3.47 µM). Further, the half-life in data set [5] is 1.92 h; in data set [4] (setting [6]) it was above 6 h; in data set [4] (setting [7]), above 6 h.

On to `CC[C@H](C)[C@H](NC(=O)[C@H](CCCN)NC(=O)[C@H](CCCNC(=N)N)NC(=O)[C@@H]1C[C@@H](O)CN1C(=O)[C@@H]1CCCN1C(=O)[C@H](CCCNC(=N)N)NC(=O)[C@@H]1CCCN1C(=O)[C@H](CCCNC(=N)N)NC(=O)[C@@H]1CCCN1C(=O)[C@H](CC(C)C)NC(=O)[C@H](Cc1ccc(O)cc1)NC(=O)[C@@H]1CCCN1C(=O)[C@@H]1CCCN1C(=O)[C@H](CCCCN)NC(=O)[C@H](CC(=O)O)NC(=O)[C@@H](N)C(C)C)C(=O)N[C@@H](Cc1ccc(O)cc1)C(=O)N[C@@H](CC(N)=O)C(=O)N[C@@H](CCCN)C(N)=O` [SEQ ID NO. 107] (H-VDKPPYLPRPRP[Hyp]R[Orn]IYN[Orn]-NH2), for which the half-life in data set [5] stood at 3.58 h.

On to `CC[C@H](C)[C@H](NC(=O)[C@@H]1C[C@@H](O)CN1C(=O)[C@H](CCCNC(=N)N)NC(=O)[C@@H]1C[C@@H](O)CN1C(=O)[C@@H]1CCCN1C(=O)[C@H](CCCNC(=N)N)NC(=O)[C@@H]1CCCN1C(=O)[C@H](CCCNC(=N)N)NC(=O)[C@@H]1CCCN1C(=O)[C@H](CC(C)C)NC(=O)[C@H](Cc1ccc(O)cc1)NC(=O)[C@@H]1CCCN1C(=O)[C@@H]1CCCN1C(=O)[C@H](CCCCN)NC(=O)[C@H](CC(=O)O)NC(=O)[C@@H](N)C(C)C)C(=O)N[C@@H](Cc1ccc(O)cc1)C(=O)N[C@@H](CC(N)=O)C(=O)N[C@@H](CCCN)C(N)=O` [SEQ ID NO. 108] (H-VDKPPYLPRPRP[Hyp]R[Hyp]IYN[Orn]-NH2), for which, in data set [1] (1% TSB, 20 h at 37° C.), the “MIC E. coli BL21 A1” value came to 2 µg/mL (≈ 0.862 µM). In addition, the “MIC E. coli DSM 10233” value in data set [3] was in the range of 1 to 4 µg/mL.

Regarding `CC(C)C[C@H](NC(=O)[C@H](Cc1ccc(O)cc1)NC(=O)[C@@H]1CCCN1C(=O)[C@@H]1CCCN1C(=O)[C@H](CCCCN)NC(=O)[C@H](CC(=O)O)NC(=O)[C@@H](N)C(C)C)C(=O)N1CCC[C@H]1C(=O)N[C@@H](CCCNC(=N)N)C(=O)N1CCC[C@H]1C(=O)N[C@@H](CCCNC(=N)N)C(=O)N1CCC[C@H]1C(=O)N1CCC[C@H]1C(=O)N[C@@H](CCCNC(=N)N)C(=O)N[C@@H](CCCN)C(=O)N[C@H](C(=O)N[C@@H](Cc1ccc(O)cc1)C(=O)N[C@@H](CC(N)=O)C(=O)N[C@@H](CCCN)C(N)=O)C(C)(C)C` [SEQ ID NO. 109, VDKPPYLPRPRPPRO-Tle-YNO-NH2] (H-VDKPPYLPRPRPPR[Orn][Tle]YN[Orn]-NH2), the half-life in data set [5] was above 4 h.

Turning to `CC(C)C[C@H](NC(=O)[C@H](Cc1ccc(O)cc1)NC(=O)[C@@H]1CCCN1C(=O)[C@@H]1CCCN1C(=O)[C@H](CCCCN)NC(=O)[C@H](CC(=O)O)NC(=O)[C@@H](N)C(C)C)C(=O)N1CCC[C@H]1C(=O)N[C@@H](CCCNC(=N)N)C(=O)N1CCC[C@H]1C(=O)N[C@@H](CCCNC(=N)N)C(=O)N1CCC[C@H]1C(=O)N1C[C@H](O)C[C@H]1C(=O)N[C@@H](CCCNC(=N)N)C(=O)N1C[C@H](O)C[C@H]1C(=O)N[C@H](C(=O)N[C@@H](Cc1ccc(O)cc1)C(=O)N[C@@H](CC(N)=O)C(=O)N[C@@H](CCCN)C(N)=O)C(C)(C)C` [SEQ ID NO. 110] (H-VDKPPYLPRPRP[Hyp]R[Hyp][Tle]YN[Orn]-NH2), the “MIC E. coli BL21 A1” value in data set [1] (1% TSB, 20 h at 37° C.) was found to be 2 µg/mL (≈ 0.862 µM). In data set [5], the half-life was above 4 h.

With `CC[C@H](C)[C@H](NC(=O)[C@H](Cc1ccc(O)cc1)NC(=O)[C@H](CC(N)=O)NC(=O)[C@@H](N)CCCN)C(=O)N1C[C@H](O)C[C@H]1C(=O)N[C@@H](CCCNC(=N)N)C(=O)N1CCC[C@H]1C(=O)N1CCC[C@H]1C(=O)N[C@@H](CCCNC(=N)N)C(=O)N1CCC[C@H]1C(=O)N[C@@H](CCCNC(=N)N)C(=O)N1CCC[C@H]1C(=O)N[C@@H](CC(C)C)C(=O)N[C@@H](Cc1ccc(O)cc1)C(=O)N1CCC[C@H]1C(=O)N1CCC[C@H]1C(=O)N[C@@H](CCCCN)C(=O)N[C@@H](CC(=O)O)C(=O)N[C@H](C(N)=O)C(C)C` [SEQ ID NO. 114] (H-[Orn]NYI[Hyp]RPPRPRPLYPPKDV-NH2), the “MIC E. coli DSM 10233” value in data set [3] lay within 1 to 4 µg/mL.

For `CC(C)C[C@H](NC(=O)[C@H](CCCN)NC(=O)[C@H](CCCNC(=N)N)NC(=O)[C@@H]1CCCN1C(=O)[C@@H]1CCCN1C(=O)[C@H](CCCNC(=N)N)NC(=O)[C@@H]1CCCN1C(=O)[C@H](CCCNC(=N)N)NC(=O)[C@@H]1CCCN1C(=O)[C@H](CC(C)C)NC(=O)[C@H](Cc1ccc(O)cc1)NC(=O)[C@@H]1CCCN1C(=O)[C@@H]1CCCN1C(=O)[C@H](CCCCN)NC(=O)[C@H](CC(=O)O)NC(=O)[C@@H](N)C(C)C)C(=O)N[C@@H](Cc1ccc(O)cc1)C(=O)N[C@@H](CC(N)=O)C(=O)N[C@@H](CCCN)C(N)=O` [compound 73] (H-VDKPPYLPRPRPPR[Orn]LYN[Orn]-NH2), in data set [1] (BL21, 20 h), the “MIC E. coli BL21 A1” value stood at 8 µg/mL (≈ 3.47 µM). In addition, in data set [2], the “MIC M. luteus 10240” value amounted to 16 µg/mL (≈ 6.94 µM). In addition, the half-life in data set [5] was determined as 1.5 h.
